The assay has as its target Histone deacetylase 1 (Homo sapiens, UniProt Q13547).

Sequence of Histone deacetylase 1 (Q13547 whole entry): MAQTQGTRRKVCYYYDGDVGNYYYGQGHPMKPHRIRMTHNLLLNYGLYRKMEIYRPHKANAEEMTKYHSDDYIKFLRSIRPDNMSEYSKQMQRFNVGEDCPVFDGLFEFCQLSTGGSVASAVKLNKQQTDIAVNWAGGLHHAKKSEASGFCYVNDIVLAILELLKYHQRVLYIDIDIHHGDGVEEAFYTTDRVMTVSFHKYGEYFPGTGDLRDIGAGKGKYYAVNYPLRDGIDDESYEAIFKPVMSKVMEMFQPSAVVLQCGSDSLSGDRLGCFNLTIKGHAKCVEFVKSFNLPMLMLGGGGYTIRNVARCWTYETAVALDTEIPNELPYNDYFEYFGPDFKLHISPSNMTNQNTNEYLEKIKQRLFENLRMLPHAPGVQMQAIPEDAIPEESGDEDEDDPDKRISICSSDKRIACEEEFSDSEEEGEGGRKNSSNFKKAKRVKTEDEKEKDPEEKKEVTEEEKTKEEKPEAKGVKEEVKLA

The molecule `CCCCCCCC(=O)SCC/C=C/[C@@H]1CC(=O)NCc2nc(cs2)-c2nc(cs2)C(=O)N[C@@H](C(C)C)C(=O)O1` showed an IC50 of 2 µM.

`CC(C)[C@H](NC(=O)[C@]1(C)CSC(c2cscn2)=N1)C(=O)OC/C=C/CCS`: the IC50 was found to be 16.8 µM.

The molecule `Cc1nc(C2=N[C@](C)(C(=O)N[C@H](C(=O)OC/C=C/CCS)C(C)C)CS2)cs1` gave an IC50 of 13.9 µM. This IC50 and that of the molecule before are within 1.5-fold of each other.

Take `CCCCCCCC(=O)SCC/C=C/[C@@H]1CC(=O)NCc2nc(cs2)C2=N[C@@](C)(CS2)C(=O)N[C@@H](C(C)C)C(=O)O1` [LARGAZOLE]: 0.0137 µM corresponded to half-maximal inhibition (IC50).
